Laboratory results reported in article PMC10647531, “Effects of Icariin and Its Metabolites on GPCR Regulation and MK-801-Induced Schizophrenia-Like Behaviors in Mice” (Molecules, 2023).

How the values were obtained:
hMAO-A = molecular target: T1, hMAO-A (Homo sapiens, UniProt P21397); assay: In vitro hMAO-inhibitory assay (MAO-Glo), hMAO-A; format: biochemical; settings: mean ± SD of triplicate experiments
T1 sequence (P21397 1-527): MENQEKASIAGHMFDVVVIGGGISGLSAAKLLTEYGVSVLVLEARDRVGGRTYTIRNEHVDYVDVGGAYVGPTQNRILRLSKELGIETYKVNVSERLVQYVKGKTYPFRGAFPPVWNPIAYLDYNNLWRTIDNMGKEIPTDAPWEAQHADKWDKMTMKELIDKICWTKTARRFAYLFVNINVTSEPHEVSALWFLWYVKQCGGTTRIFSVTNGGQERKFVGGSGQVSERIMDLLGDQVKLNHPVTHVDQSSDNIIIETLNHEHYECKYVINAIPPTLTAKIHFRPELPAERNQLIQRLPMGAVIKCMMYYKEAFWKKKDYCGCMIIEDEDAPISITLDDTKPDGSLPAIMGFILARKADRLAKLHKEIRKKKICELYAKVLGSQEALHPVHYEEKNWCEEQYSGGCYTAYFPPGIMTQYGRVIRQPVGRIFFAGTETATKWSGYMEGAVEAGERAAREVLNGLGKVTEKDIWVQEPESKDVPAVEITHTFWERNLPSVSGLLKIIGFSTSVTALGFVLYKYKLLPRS
Text: (§1) A homogeneous luminescent assay using the MAO-Glo™ assay kit (Promega, Madison, WI, USA) was used to evaluate the hMAO-inhibitory activity of icariin and its metabolites according to the manufacturer’s protocol.

hMAO-B = molecular target: T2, hMAO-B (Homo sapiens, UniProt P27338); assay: In vitro hMAO-inhibitory assay (MAO-Glo), hMAO-B; format: biochemical; settings: mean ± SD of triplicate experiments
T2 sequence (P27338 1-520): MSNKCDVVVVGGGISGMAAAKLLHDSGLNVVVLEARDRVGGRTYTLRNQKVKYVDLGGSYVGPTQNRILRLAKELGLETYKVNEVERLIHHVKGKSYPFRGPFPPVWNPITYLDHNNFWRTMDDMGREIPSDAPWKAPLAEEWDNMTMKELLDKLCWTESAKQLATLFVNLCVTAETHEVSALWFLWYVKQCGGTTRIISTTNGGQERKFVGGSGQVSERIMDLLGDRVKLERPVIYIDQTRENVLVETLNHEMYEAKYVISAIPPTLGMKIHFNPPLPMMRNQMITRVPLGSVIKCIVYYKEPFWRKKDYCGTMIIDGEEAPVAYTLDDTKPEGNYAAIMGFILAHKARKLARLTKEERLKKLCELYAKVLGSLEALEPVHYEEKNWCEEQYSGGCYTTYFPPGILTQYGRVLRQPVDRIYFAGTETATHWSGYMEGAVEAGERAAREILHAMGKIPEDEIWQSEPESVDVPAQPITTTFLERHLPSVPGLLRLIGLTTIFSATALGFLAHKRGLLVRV
Text: as §1

[1] = test system: ferrous-treated rat brain homogenates; assay: Lipid peroxidation assay (TBARS); format: biochemical; settings: rat brain homogenate; mean ± SD of triplicate experiments
Experimental: Whole brain homogenates from male Sprague-Dawley rats (6 months old) were prepared according to procedures described in previous studies. […] After 1 h of incubation at 37 °C, the stop solution was added to the reaction mixture. After incubation in boiling water for 1 h, the reaction mixture was extracted with normal butanol and centrifuged (1300× g for 10 min).

MK-801-treated mice [2] = assay: Acoustic startle response task (ASRT), prepulse inhibition; format: in vivo
Experimental: (§2) The mice were housed in the University Animal Care Unit for one week prior to the experiment. Each cage housed 10 mice, and all mice had unlimited access to water and food. […] The Institutional Animal Care and Use Committee of Kyung Hee University approved the mouse experimental protocols (approval number: KHUASP-22-530).
The ASRT was conducted using SR-LAB startle chambers (San Diego Instruments, San Diego, CA, USA), consisting of a box that can lightly confine the mice, a system that can generate sound stimuli regularly, equipment that can measure animal movements, a program that can digitize the measured stimuli, and a source and speaker that can provide sound. The ASRT sessions included three trials: non-stimulus (PPI-1), startle (pulse alone, PPI-2), and prepulse (prepulse + pulse, PPI-3). The PPI-1 trial consisted of background noise only. The PPI-2 trial consisted of constant noise (80−120 dB, five sections) for 40 ms. The PPI-3 trial consisted of a noise prepulse ([…], which are 3, 6, 12, and 16 dB above the background noise, respectively) for 20 ms, a delay for 80 ms, and a 120 dB startle pulse for 40 ms. The percentage score for PPI was calculated as follows: % PPI = [(PPI-2 – PPI-3)/(PPI-2)] × 100(%).

MK-801-treated mice [3] = assay: Social novelty preference test (SNPT); format: in vivo
Text: as §2
Three chambers in a rectangular Plexiglas box (w × d × h: 94 × 28 × 30 cm) were used for the SNPT. The left, right, and central chambers were all joined together by openings (w × d: 6 × 28 cm). On the center of the left and right chambers, an iron muntin cylinder lockup (h × d: 11 × 12 cm) was installed. A test mouse was allowed to interact with another mouse that was trapped in the cylinder lockup. A test mouse was placed in the middle chamber during the acclimatization trial (trial-1, 10 min) and was allowed to freely explore all three compartments through the apertures. A mouse that was younger than the test mouse was placed in a lockup in the first sociability experiment (trial-2) following trial-1, while the other lockup remained. The test mouse was taken to the center compartment and allowed to wander around. The second sociability trial (trial-3) was performed immediately after trial-2. A new mouse that was younger than the test mouse was put in the empty cell during trial-3 (10 min), and the test mouse was put into an empty lockup and allowed to explore.

M4 mACh receptor (M4R) [4] = molecular target: T3, M4 mACh receptor (M4R) (Homo sapiens, UniProt P08173); assay: cAMP agonist assay (M4R); settings: 100 μM
T3 sequence (P08173 1-479): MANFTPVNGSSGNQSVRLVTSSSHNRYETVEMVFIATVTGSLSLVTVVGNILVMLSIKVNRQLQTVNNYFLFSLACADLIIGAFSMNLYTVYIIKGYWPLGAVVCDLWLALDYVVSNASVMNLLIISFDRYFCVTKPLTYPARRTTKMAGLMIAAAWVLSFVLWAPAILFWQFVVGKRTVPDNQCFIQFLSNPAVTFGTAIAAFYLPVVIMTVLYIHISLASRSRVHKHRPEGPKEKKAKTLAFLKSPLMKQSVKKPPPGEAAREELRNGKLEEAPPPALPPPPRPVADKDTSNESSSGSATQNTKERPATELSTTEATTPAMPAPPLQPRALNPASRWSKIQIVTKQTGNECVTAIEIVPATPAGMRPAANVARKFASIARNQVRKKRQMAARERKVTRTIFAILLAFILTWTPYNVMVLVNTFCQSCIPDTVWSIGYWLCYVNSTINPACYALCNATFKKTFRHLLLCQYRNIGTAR

[5] = molecular target: T4, muscarinic acetylcholine M2 receptor (M2R) (Homo sapiens, UniProt P08172); settings: 100 μM; control agonist 300 nM ACh
T4 sequence (P08172 1-466): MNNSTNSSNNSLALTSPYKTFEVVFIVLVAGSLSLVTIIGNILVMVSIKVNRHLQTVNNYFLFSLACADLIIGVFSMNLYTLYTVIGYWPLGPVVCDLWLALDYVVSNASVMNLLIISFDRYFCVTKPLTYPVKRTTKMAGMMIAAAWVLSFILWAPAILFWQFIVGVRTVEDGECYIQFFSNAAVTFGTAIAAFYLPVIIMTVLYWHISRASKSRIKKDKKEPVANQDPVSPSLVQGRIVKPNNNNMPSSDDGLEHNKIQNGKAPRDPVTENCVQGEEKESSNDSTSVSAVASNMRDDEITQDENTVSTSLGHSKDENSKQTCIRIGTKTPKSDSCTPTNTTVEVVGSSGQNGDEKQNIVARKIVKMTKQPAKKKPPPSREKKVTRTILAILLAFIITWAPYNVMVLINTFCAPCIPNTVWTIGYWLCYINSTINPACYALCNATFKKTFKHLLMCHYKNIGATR

[6] = design: method as in PMID 31844591; settings: cited from earlier work
[7] = molecular target: T4, muscarinic acetylcholine M2 receptor (M2R); assay: Radioligand binding assay ([3H]AF-DX 384, CHO-M2R membrane homogenates); design: host or cells: CHO-K1
Experimental: (§3) Next, 10 μM (f.c.) (+)-butaclamol (for D3R) and 1 μM (f.c.) atropine (for M2R) were used to detect nonspecific binding in the respective assays. The binding affinity of a test compound was calculated as the inhibition (%) of control (radioligand)-specific binding.

M4 mACh receptor (M4R) [8] = molecular target: T3, M4 mACh receptor (M4R); assay: cAMP antagonist assay (M4R); settings: read-out: Antagonist effect (%) M4 (inhibition of the control agonist response)
[9] = molecular target: T5, vasopressin 1A receptor (V1AR) (Homo sapiens, UniProt P37288); format: cell-based; settings: 100 μM; stimulus AVP (10 nM)
T5 construct: host or cells: CHO-K1
T5 sequence (P37288 whole entry): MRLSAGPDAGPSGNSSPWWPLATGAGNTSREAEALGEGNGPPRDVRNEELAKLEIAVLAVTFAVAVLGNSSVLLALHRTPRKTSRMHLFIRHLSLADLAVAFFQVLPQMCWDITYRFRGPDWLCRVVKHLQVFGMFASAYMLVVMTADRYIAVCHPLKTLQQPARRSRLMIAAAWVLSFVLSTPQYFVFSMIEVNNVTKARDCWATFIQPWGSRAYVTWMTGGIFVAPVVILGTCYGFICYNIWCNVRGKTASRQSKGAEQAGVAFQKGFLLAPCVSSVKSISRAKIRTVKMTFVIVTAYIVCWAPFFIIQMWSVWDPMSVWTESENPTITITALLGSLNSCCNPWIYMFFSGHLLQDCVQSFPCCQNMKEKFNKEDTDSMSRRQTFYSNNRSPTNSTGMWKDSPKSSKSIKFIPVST
Text: a All products including cell-line and reagents were provided by Cerep (Cel le L'Evescault, France).

Human D3R = molecular target: T6, Human D3R (Homo sapiens, UniProt P35462); format: binding; settings: 50 μM
T6 construct: expressed in transfected cells; host or cells: CHO-K1 (membrane homogenates)
T6 sequence (P35462 whole entry): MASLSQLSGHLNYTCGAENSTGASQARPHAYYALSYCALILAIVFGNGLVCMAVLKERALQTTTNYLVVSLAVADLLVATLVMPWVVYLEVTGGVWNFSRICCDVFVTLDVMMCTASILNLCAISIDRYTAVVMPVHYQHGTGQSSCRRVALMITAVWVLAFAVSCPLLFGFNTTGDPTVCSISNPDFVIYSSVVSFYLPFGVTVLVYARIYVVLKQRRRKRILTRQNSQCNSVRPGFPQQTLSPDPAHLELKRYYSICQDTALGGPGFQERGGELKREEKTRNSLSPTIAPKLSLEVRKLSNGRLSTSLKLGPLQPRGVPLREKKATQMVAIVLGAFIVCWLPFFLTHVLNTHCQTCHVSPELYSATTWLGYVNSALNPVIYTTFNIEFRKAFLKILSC
Experimental: as §3

COc1ccc(-c2oc3c(CC=C(C)C)c(O[C@@H]4O[C@H](CO)[C@@H](O)[C@H](O)[C@H]4O)cc(O)c3c(=O)c2O[C@@H]2O[C@@H](C)[C@H](O)[C@@H](O)[C@H]2O)cc1 [Icariin, icariin]
IC50 (hMAO-A): 422 ± 7.07 µM
IC50 (hMAO-B): > 500 µM
IC50 [1]: 301 ± 2.16 µM
effect on MK-801-induced PPI deficits (MK-801-treated mice [2]; 3 and 10 mg/kg, p.o., at +12 and +16 dB above the background noise): significantly reversed
effect on MK-801-induced social interaction deficits (MK-801-treated mice [3]; 3 and 10 mg/kg, p.o.): significantly reversed
agonist effect assay on M4R (M4 mACh receptor (M4R) [4]): opposite effect to that of icariside II

COc1ccc(-c2oc3c(CC=C(C)C)c(O)cc(O)c3c(=O)c2O)cc1 [Icaritin, icaritin]
IC50 (hMAO-A): > 500 µM
IC50 (hMAO-B): > 500 µM
IC50 [1]: 81.3 ± 3.09 µM
effect on MK-801-induced PPI deficits (MK-801-treated mice [2]; 1, 3, and 10 mg/kg, p.o.): no significant effects
effect on MK-801-induced social interaction deficits (MK-801-treated mice [3]; 3 and 10 mg/kg, p.o.): significantly reversed
Antagonist effect (%) M2 [5]: 54.55%
blood-brain barrier penetration [6]: could penetrate the blood-brain barrier (BBB) readily
Radioligand specific binding (%) (M2R) ([7]; 100 μM): 81.95%
Radioligand specific binding (%) (M2R) ([7]; 150 μM): 64.00%
blocked radioligand binding to the target binding site (M2R) ([7]; 150 μM): 36%
inhibition at 100 µM (M4 mACh receptor (M4R) [8]): 32.4%

C[C@]12N[C@H](Cc3ccccc31)c1ccccc12 [MK-801]
acoustic startle amplitude (MK-801-treated mice [2]; 0.2 mg/kg alone (i.p.), at 120 dB): significantly increased
prepulse inhibition (PPI) (MK-801-treated mice [2]; 0.2 mg/kg alone (i.p.), at +3, +6, +12, and +16 dB above the background noise (70 dB)): decreased
amount of time spent in the chamber with the unknown mouse (MK-801-treated mice [3]; alone, 0.2 mg/kg, i.p., compared with control group): considerably reduced

Cc1c(C)c2c(c(C)c1O)CCC(C)(C(=O)O)O2 (centres unmarked) [Trolox, reference compound]
IC50 [1]: 32.3 ± 3.21 µM

O=C1CCc2ccc(OCCCCN3CCN(c4cccc(Cl)c4Cl)CC3)cc2N1 [aripiprazole, reference compound]
effect on MK-801-induced PPI deficits (MK-801-treated mice [2]; 1 mg/kg, i.p., at +12 and +16 dB above the background noise): significantly reversed
effect on MK-801-induced social interaction deficits (MK-801-treated mice [3]; 1 mg/kg, i.p.): significantly reversed

icariside II
antagonist effect on V1AR [9]: 42.0%
radioligand binding to the target binding site (D3R) (Human D3R): almost completely blocked
IC50 [1]: 70.4 ± 2.04 µM
effect on MK-801-induced PPI deficits (MK-801-treated mice [2]; 1, 3, and 10 mg/kg, p.o.): no significant effects
effect on MK-801-induced social interaction deficits (MK-801-treated mice [3]; 1, 3, and 10 mg/kg, p.o.): significantly reversed
agonist effect assay on M4R (M4 mACh receptor (M4R) [4]): has an agonist effect
